From patent publication US12077503B2, “Substituted cyclic amides and their use as herbicides” (FMC CORPORATION, priority 2015, dated 2024)

Legend:
Assay type in all cases: in vivo
[1] = tested on: redroot pigweed (Amaranthus retroflexus); assay: Test G Pre-Emergence Protocol; conditions: Amaranthus retroflexus, pre-emergence, 312 h, evaluated after 13 days; for pest or weed control at 15.625 g/ha: 15.625 g ai/ha; for pest or weed control at 15.625 g/ha / pest or weed control at 250 g/ha: read-out: Pigweed, Redroot damage rating (100=total damage to plant; 0=no damage to plant); for pest or weed control at 62.5 g/ha: 62.5 g ai/ha, 100=total damage to plant, 0=no damage to plant, read-out: plant damage rating, Pigweed, Redroot; for pest or weed control at 250 g/ha: 250 g ai/ha
Outline: (§1)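 Spraying took place one day after sowing, at 15.625, 62.5 or 250 g/ha, using an acetone/water (50:50) spray solution containing 0.5% Tween 20. Plants were kept under glasshouse conditions (24/16 °C, 14 h light, 65% humidity, watered twice daily), and injury was rated 0–100 at day 13.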

[2] = tested on: ivy-leaved morning glory (Ipomoea hederacea); assay: Test G Pre-Emergence Protocol; conditions: Ipomoea, pre-emergence, 312 h, evaluated after 13 days; for pest or weed control at 62.5 g/ha: 62.5 g ai/ha, 100=total damage to plant, 0=no damage to plant, read-out: plant damage rating, Morningglory, Ivy-leaved
Outline: as §1

corn (Zea mays) [3] = assay: Test G Pre-Emergence Protocol; conditions: Zea mays, pre-emergence, 312 h, evaluated after 13 days; for plant injury at 15.625 g/ha: 15.625 g ai/ha; for plant injury at 15.625 g/ha / plant injury at 250 g/ha: read-out: Corn damage rating (100=total damage to plant; 0=no damage to plant); for plant injury at 62.5 g/ha: 62.5 g ai/ha, 100=total damage to plant, 0=no damage to plant, read-out: plant damage rating, Corn; for plant injury at 250 g/ha: 250 g ai/ha
Outline: as §1

[4] = tested on: giant foxtail (Setaria faberi); assay: Test G Pre-Emergence Protocol; conditions: Setaria faberi, pre-emergence, 312 h, evaluated after 13 days; for pest or weed control at 15.625 g/ha: 15.625 g ai/ha; for pest or weed control at 15.625 g/ha / pest or weed control at 250 g/ha: read-out: Foxtail, Giant damage rating (100=total damage to plant; 0=no damage to plant); for pest or weed control at 62.5 g/ha: 62.5 g ai/ha, 100=total damage to plant, 0=no damage to plant, read-out: plant damage rating, Foxtail, Giant; for pest or weed control at 250 g/ha: 250 g ai/ha
Outline: as §1

[5] = tested on: velvetleaf (Abutilon theophrasti); assay: Test G Pre-Emergence Protocol; conditions: Abutilon theophrasti, pre-emergence, 312 h, evaluated after 13 days; for pest or weed control at 15.625 g/ha: 15.625 g ai/ha; for pest or weed control at 15.625 g/ha / pest or weed control at 250 g/ha: read-out: Velvetleaf damage rating (100=total damage to plant; 0=no damage to plant); for pest or weed control at 62.5 g/ha: 62.5 g ai/ha, 100=total damage to plant, 0=no damage to plant, read-out: plant damage rating, Velvetleaf; for pest or weed control at 250 g/ha: 250 g ai/ha
Outline: as §1

[6] = tested on: barnyardgrass (Echinochloa crus-galli); assay: Test G Pre-Emergence Protocol; conditions: Echinochloa crus-galli, pre-emergence, 312 h, evaluated after 13 days; for pest or weed control at 15.625 g/ha: 15.625 g ai/ha, read-out: Barnyard grass damage rating (100=total damage to plant; 0=no damage to plant); for pest or weed control at 62.5 g/ha: 62.5 g ai/ha, 100=total damage to plant, 0=no damage to plant, read-out: plant damage rating, Barnyardgrass; for pest or weed control at 250 g/ha: 250 g ai/ha, read-out: Barnyardgrass damage rating (100=total damage to plant; 0=no damage to plant)
Outline: as §1

[7] = tested on: redroot pigweed (Amaranthus retroflexus); assay: Test G Post-Emergence Protocol; conditions: Amaranthus retroflexus, post-emergence, 312 h; for pest or weed control at 15.625 g/ha: 15.625 g ai/ha, evaluated after 13 days (100=total damage to plant; 0=no damage to plant), read-out: Pigweed, Redroot damage rating; for pest or weed control at 62.5 g/ha: 62.5 g ai/ha, read-out: Pigweed, Redroot damage rating (100=total damage to plant; 0=no damage to plant); for pest or weed control at 62.5 g/ha / pest or weed control at 250 g/ha: evaluated after 13 days; for pest or weed control at 250 g/ha: 250 g ai/ha, read-out: damage to plant, Pigweed, Redroot (100=total damage to plant; 0=no damage to plant)
Outline: (§2)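 Foliar application was made 8 days after sowing, using an aqueous spray of the active in acetone/water (50:50) with 0.5% Tween 20, at doses of 15.625, 62.5 or 250 g/ha. Injury was assessed 13 days later, where 100 meant the plant was fully damaged.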

[8] = tested on: ivy-leaved morning glory (Ipomoea hederacea); assay: Test G Post-Emergence Protocol; conditions: Ipomoea, post-emergence, 312 h; for pest or weed control at 15.625 g/ha: 15.625 g ai/ha, evaluated after 13 days (100=total damage to plant; 0=no damage to plant), read-out: Morningglory, Ivy-leaved damage rating; for pest or weed control at 62.5 g/ha: 62.5 g ai/ha, read-out: Morningglory, Ivy-leaved damage rating (100=total damage to plant; 0=no damage to plant); for pest or weed control at 62.5 g/ha / pest or weed control at 250 g/ha: evaluated after 13 days; for pest or weed control at 250 g/ha: 250 g ai/ha, read-out: damage to plant, Morningglory, Ivy-leaved (100=total damage to plant; 0=no damage to plant)
Outline: as §2

corn (Zea mays) [9] = assay: Test G Post-Emergence Protocol; conditions: Zea mays, post-emergence, 312 h; for plant injury at 15.625 g/ha: 15.625 g ai/ha, evaluated after 13 days (100=total damage to plant; 0=no damage to plant), read-out: Corn damage rating; for plant injury at 62.5 g/ha: 62.5 g ai/ha, read-out: Corn damage rating (100=total damage to plant; 0=no damage to plant); for plant injury at 62.5 g/ha / plant injury at 250 g/ha: evaluated after 13 days; for plant injury at 250 g/ha: 250 g ai/ha, read-out: damage to plant, Corn (100=total damage to plant; 0=no damage to plant)
Outline: as §2

[10] = tested on: giant foxtail (Setaria faberi); assay: Test G Post-Emergence Protocol; conditions: Setaria faberi, post-emergence, 312 h; for pest or weed control at 15.625 g/ha: 15.625 g ai/ha, evaluated after 13 days (100=total damage to plant; 0=no damage to plant), read-out: Foxtail, Giant damage rating; for pest or weed control at 62.5 g/ha: 62.5 g ai/ha, read-out: Foxtail, Giant damage rating (100=total damage to plant; 0=no damage to plant); for pest or weed control at 62.5 g/ha / pest or weed control at 250 g/ha: evaluated after 13 days; for pest or weed control at 250 g/ha: 250 g ai/ha, read-out: damage to plant, Foxtail, Giant (100=total damage to plant; 0=no damage to plant)
Outline: as §2

[11] = tested on: velvetleaf (Abutilon theophrasti); assay: Test G Post-Emergence Protocol; conditions: Abutilon theophrasti, post-emergence, 312 h; for pest or weed control at 15.625 g/ha: 15.625 g ai/ha, evaluated after 13 days (100=total damage to plant; 0=no damage to plant), read-out: Velvetleaf damage rating; for pest or weed control at 62.5 g/ha: 62.5 g ai/ha, read-out: Velvetleaf damage rating (100=total damage to plant; 0=no damage to plant); for pest or weed control at 62.5 g/ha / pest or weed control at 250 g/ha: evaluated after 13 days; for pest or weed control at 250 g/ha: 250 g ai/ha, read-out: damage to plant, Velvetleaf (100=total damage to plant; 0=no damage to plant)
Outline: as §2

[12] = tested on: barnyardgrass (Echinochloa crus-galli); assay: Test G Post-Emergence Protocol; conditions: Echinochloa crus-galli, post-emergence, 312 h; for pest or weed control at 15.625 g/ha: 15.625 g ai/ha, evaluated after 13 days (100=total damage to plant; 0=no damage to plant), read-out: Barnyardgrass damage rating; for pest or weed control at 62.5 g/ha: 62.5 g ai/ha, read-out: Barnyardgrass damage rating (100=total damage to plant; 0=no damage to plant); for pest or weed control at 62.5 g/ha / pest or weed control at 250 g/ha: evaluated after 13 days; for pest or weed control at 250 g/ha: 250 g ai/ha, read-out: damage to plant, Barnyardgrass (100=total damage to plant; 0=no damage to plant)
Outline: as §2

Compound | pest or weed control at 15.625 g/ha [1] | pest or weed control at 62.5 g/ha [1] | pest or weed control at 250 g/ha [1] | pest or weed control at 62.5 g/ha [2] | plant injury at 15.625 g/ha (corn (Zea mays) [3]) | plant injury at 62.5 g/ha (corn (Zea mays) [3]) | plant injury at 250 g/ha (corn (Zea mays) [3]) | pest or weed control at 15.625 g/ha [4] | pest or weed control at 62.5 g/ha [4] | pest or weed control at 250 g/ha [4] | pest or weed control at 15.625 g/ha [5] | pest or weed control at 62.5 g/ha [5] | pest or weed control at 250 g/ha [5] | pest or weed control at 15.625 g/ha [6] | pest or weed control at 62.5 g/ha [6] | pest or weed control at 250 g/ha [6] | pest or weed control at 15.625 g/ha [7] | pest or weed control at 62.5 g/ha [7] | pest or weed control at 250 g/ha [7] | pest or weed control at 15.625 g/ha [8] | also measured
CN1C[C@H](c2ccc3ccccc3c2)[C@@H](C(=O)Nc2cccc(F)c2F)C1=O (racemic) [Compound 1501] | 0% | 0% | 0% | 0% | 0% | 0% | 0% | 0% | 70% | 80% | 0% | 0% | 0% | 0% | 50% | 60% | 0% | 0% | 0% | 0% | pest or weed control at 62.5 g/ha [8]: 0%; pest or weed control at 250 g/ha [8]: 0%; plant injury at 15.625 g/ha (corn (Zea mays) [9]): 10%; plant injury at 62.5 g/ha (corn (Zea mays) [9]): 20%; plant injury at 250 g/ha (corn (Zea mays) [9]): 30%; pest or weed control at 15.625 g/ha [10]: 40%; pest or weed control at 62.5 g/ha [10]: 60%; pest or weed control at 250 g/ha [10]: 60%; pest or weed control at 15.625 g/ha [11]: 0%; pest or weed control at 62.5 g/ha [11]: 0%; pest or weed control at 250 g/ha [11]: 0%; pest or weed control at 15.625 g/ha [12]: 10%; pest or weed control at 62.5 g/ha [12]: 50%; pest or weed control at 250 g/ha [12]: 60%
Cc1ccc([C@H]2CN(C)C(=O)[C@@H]2C(=O)Nc2ccccc2F)cc1Cl (racemic) [Compound 1420] | 0% | 0% | 0% | 0% | 0% | 50% | 70% | 70% | 80% | 80% | 0% | 0% | 0% | 60% | 70% | 80% | 0% | 0% | 20% | 0% | pest or weed control at 15.625 g/ha ([2]; 15.625 g ai/ha, read-out: Morning-glory, Ivy-leaved damage rating (100=total damage to plant; 0=no damage to plant)): 0%; pest or weed control at 250 g/ha ([2]; 250 g ai/ha, read-out: Morningglory, Ivy-leaved damage rating (100=total damage to plant; 0=no damage to plant)): 0%; pest or weed control at 62.5 g/ha [8]: 10%; pest or weed control at 250 g/ha [8]: 0%; plant injury at 15.625 g/ha (corn (Zea mays) [9]): 10%; plant injury at 62.5 g/ha (corn (Zea mays) [9]): 40%; plant injury at 250 g/ha (corn (Zea mays) [9]): 60%; pest or weed control at 15.625 g/ha [10]: 50%; pest or weed control at 62.5 g/ha [10]: 60%; pest or weed control at 250 g/ha [10]: 60%; pest or weed control at 15.625 g/ha [11]: 0%; pest or weed control at 62.5 g/ha [11]: 0%; pest or weed control at 250 g/ha [11]: 10%; pest or weed control at 15.625 g/ha [12]: 10%; pest or weed control at 62.5 g/ha [12]: 40%; pest or weed control at 250 g/ha [12]: 40%
